Laboratory results as given in patent US11311544B2, “Treatment of congenital adrenal hyperplasia” (Neurocrine Biosciences, Inc., priority 2014, dated 2022).
pKi: −log10 of the molar value. Like-named read-outs stand apart in the source and are kept apart here.

Experiments:
[1] = target: T1, CRF1 receptor (Homo sapiens, UniProt P34998); settings: as reported in Fleck et al., cited from earlier work; for pKi: Ki=k−1/k1, read-out: Kinetic Ki; for Dissociation t1/2: t1/2=0.693/k−1
T1 sequence (P34998 24-415): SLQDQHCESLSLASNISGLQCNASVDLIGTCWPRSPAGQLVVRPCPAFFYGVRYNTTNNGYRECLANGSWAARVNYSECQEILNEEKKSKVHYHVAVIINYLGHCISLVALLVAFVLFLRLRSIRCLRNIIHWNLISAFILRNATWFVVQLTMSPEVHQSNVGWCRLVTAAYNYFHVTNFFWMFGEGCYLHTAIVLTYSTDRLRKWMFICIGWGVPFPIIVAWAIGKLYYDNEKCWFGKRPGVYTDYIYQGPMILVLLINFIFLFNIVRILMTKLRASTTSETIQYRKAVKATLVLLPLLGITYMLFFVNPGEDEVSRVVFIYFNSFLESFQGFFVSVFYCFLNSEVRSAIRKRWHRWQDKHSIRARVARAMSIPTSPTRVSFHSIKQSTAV

[2] = tested on: plasma ACTH in adrenalectomized (ADX) rats; settings: Fleck et al., cited from earlier work; for effect on plasma ACTH, acute: highest dose 10 mg/kg, 1 hr post-injection, FIG. 3A-C
[3] = tested on: plasma ACTH in adrenalectomized (ADX) rats; assay: Lowering of plasma ACTH in adrenalectomized rats; format: in vivo, rat; settings: 30 mg/kg single oral dose, FIG. 2
Excerpt: Adrenalectomy eliminates circulating corticosterone (the primary glucocorticoid) in rats and removes the negative feedback control of the HPA axis at both the hypothalamic and pituitary (corticotroph cells) levels and thus chronically elevates plasma ACTH (see, e.g., Mims et al., J. Natl. Med. Assoc. 69:145-47 (1977)). […] These findings were recapitulated with the small molecule NBI-77860 (Compound I). In adrenalectomized rats, Compound I has potent capability for lowering ACTH.
These findings were recapitulated with the small molecule NBI-77860. […] The duration of efficacy correlated with peak plasma concentrations, with a time course exceeding drug plasma exposure.
Fleck et al. also report the effects of CRF1 receptor antagonists differentiated by their dissociation half-life on plasma ACTH levels in adrenalectomized rats; namely, NBI 30775, NBI 34041 and NBI 35965. […] After a longer duration, a clear difference emerged between NBI 35965 and the other two ligands. The ACTH level returned to the vehicle level by 2 hr for NBI 35965 (FIG. 3C), whereas the response was sustained for 4-6 hr for NBI 30775 and NBI 34041 (FIGS. 3A and 3B).

[4] = tested on: HPA axis response (ACTH) produced by metyrapone; assay: Pharmacodynamic effect of single oral doses on HPA axis response produced by metyrapone in humans; format: in vivo; settings: human, metyrapone 0.04 g/kg
[5] = tested on: 17-OHP and ACTH levels (HPA axis hormones); assay: Phase 1 single-dose clinical study in adult females with classical congenital adrenal hyperplasia; format: in vivo, human; settings: adult female classical CAH patients, single bedtime doses
Description: The study was a single-blind, placebo-controlled, single center, fixed-sequence, single-dose clinical trial in adult female classical CAH patients.
The subjects' usual morning dose of concurrent steroidal treatment was delayed until after the 16-hour postdose blood samples were collected (i.e., until approximately 1400 h).
The PD endpoints for this study included the HPA axis biomarkers of interest in this patient population; namely, 17-hydroxyprogesterone (17-OHP; as the primary PD endpoint), adrenocorticotropic hormone (ACTH), androstenedione, testosterone, and serum cortisol levels. The initial analysis of PD variables was an examination of the grouped subject data for each biomarker, expressed as a mean percent change from predose levels for the two active dosing conditions relative to the placebo condition.
This responder analysis yielded a sizeable responder rate of 50% in the study (none of these subjects were responders during the initial placebo treatment period).

[6] = Table 2 rate constant used for t1/2

SMILES: CCC(CC)Nc1c2c(nc3c(-c4ccc(OC)cc4Cl)c(C)nn13)CCC2 [ONO-2333Ms, 10-(2-chloro-4-methoxyphenyl)-11-methyl-N-(pentan-3-yl)-1,8,12-triazatricyclo[7.3.0.0^3,7] dodeca-2,7,9,11-tetraen-2-amine]
- pKi [1]: 7.82
- Rate constant (association k1 or dissociation k−1) [1, 6]: 0.063 ± 0.029 min⁻¹
- Rate constant (association k1 or dissociation k−1) ([1]; association rate constant): 4.4 ± 2.2 10^6M^−1min^−1
- Dissociation t1/2 [1]: 17 min

SMILES: CCCC(CCC)N1CCn2nc(-c3ccc(Cl)cc3Cl)c3nc(C)cc1c32 [NBI-34041, 3-(2,4-dichlorophenyl)-9-(heptan-4-yl)-6-methyl-1,2,5,9-tetraazatricyclo[6.3.1.0^4,12] dodeca-2,4(12),5,7-tetraene]
- pKi [1]: 8.77
- Rate constant (association k1 or dissociation k−1) [1, 6]: 0.013 ± 0.002 min⁻¹
- Rate constant (association k1 or dissociation k−1) ([1]; association rate constant): 8.3 ± 2.0 10^6M^−1min^−1
- Dissociation t1/2 [1]: 53 min
- effect on plasma ACTH, acute [2]: reduced ACTH acutely

SMILES: CC[C@H](Nc1cc(C)nc2c(-c3ccc(OC)cc3C)c(C)nn12)c1nc(C)no1 [NBI-77860, 2,5-dimethyl-3-[2-methyl-4-(methyloxy)phenyl]-N-[(1S)-1-(3-methyl-1,2,4-oxadiazol-5-yl)propyl]pyrazolo[1,5-a]pyrimidin-7-amine]
- duration of significant lowering of plasma ACTH levels [3]: up to 5 hours
- ACTH AUC (30 min to 4 h) compared to placebo ([4]; single oral dose 10 mg): increase
- ACTH AUC (2 h to 4 h) compared with placebo ([4]; single oral dose 10 mg): reduction was not seen
- ACTH AUC (30 min to 4 h) compared to placebo ([4]; single oral dose 50 mg): non-significant reduction
- ACTH AUC (2 h to 4 h) compared with placebo ([4]; single oral dose 50 mg): significant reduction
- ACTH AUC (30 min to 4 h) compared to placebo ([4]; single oral dose 400 mg): significant reduction
- ACTH AUC (2 h to 4 h) compared with placebo ([4]; single oral dose 400 mg): significant reduction
- effects on 17-OHP and ACTH, 300 mg dose compared with 600 mg dose [5]: nearly identical effects

SMILES: CCCN(CCC)c1cc(C)nc2c(-c3cnc(N(C)C)cc3C)c(C)nn12 [NBI-30775, 5-[7-(dipropylamino)-2,5-dimethylpyrazolo[1,5-a]pyrimidin-3-yl]-N,N,4-trimethylpyridin-2-amine]
- Rate constant (association k1 or dissociation k−1) [1, 6]: 0.0054 ± 0.0006 min⁻¹
- Rate constant (association k1 or dissociation k−1) ([1]; association rate constant): 14 ± 2.0 10^6M^−1min^−1
- effect on plasma ACTH, acute [2]: reduced ACTH acutely

SMILES: CC[C@@H](C)Nc1nc(C)nc2c(-c3ccc(OC)nc3C)c(C)nn12 [pexacerfont, N-[(2R)-butan-2-yl]-8-(6-methoxy-2-methylpyridin-3-yl)-2,7-dimethylpyrazolo[1,5-a][1,3,5]triazin-4-amine]
- Rate constant (association k1 or dissociation k−1) [1, 6]: 0.049 ± 0.001 min⁻¹
- Rate constant (association k1 or dissociation k−1) ([1]; association rate constant): 2.6 ± 0.1 10^6M^−1min^−1
- Dissociation t1/2 [1]: 14 min

SMILES: COCC(COC)Nc1nc(C)nc2c(-c3ccc(Cl)cc3Cl)c(C)nn12 [DMP696]
- pKi [1]: 8.02
- Rate constant (association k1 or dissociation k−1) [1, 6]: 0.095 ± 0.02 min⁻¹
- Rate constant (association k1 or dissociation k−1) ([1]; association rate constant): 7.7 ± 2 10^6M^−1min^−1
- Dissociation t1/2 [1]: 7.3 min

SMILES: CC[C@H]1Cn2nc(-c3ccc(Cl)cc3Cl)c3nc(C)cc(c32)N1CC1CC1.CS(=O)(=O)O [NBI-35965]
- pKi [1]: 8.64
- Rate constant (association k1 or dissociation k−1) [1, 6]: 0.048 ± 0.005 min⁻¹
- Rate constant (association k1 or dissociation k−1) ([1]; association rate constant): 20 ± 2 10^6M^−1min^−1
- Dissociation t1/2 [1]: 16 min
- time by which ACTH level returned to the vehicle level ([2]; 10 mg/kg): ≤ 2 h
- effect on plasma ACTH, acute [2]: reduced ACTH acutely

SMILES: CCCN(CC1CC1)c1nc(C)nc(Nc2c(Cl)cc(Cl)cc2Cl)c1Cl [NBI-27914]
- pKi [1]: 7.60
- Rate constant (association k1 or dissociation k−1) [1, 6]: 0.27 ± 0.07 min⁻¹
- Rate constant (association k1 or dissociation k−1) ([1]; association rate constant): 9.4 ± 3 10^6M^−1min^−1
- Dissociation t1/2 [1]: 2.6 min

SMILES: CCCCN(CC)c1nc(C)nc2c1c(C)c(C)n2-c1c(C)cc(C)cc1C [antalarmin, N-butyl-N-ethyl-2,5,6-trimethyl-7-(2,4,6-trimethylphenyl)pyrrolo[3,2-e]pyrimidin-4-amine]
- pKi [1]: 8.41
- Rate constant (association k1 or dissociation k−1) [1, 6]: 0.013 ± 0.002 min⁻¹
- Rate constant (association k1 or dissociation k−1) ([1]; association rate constant): 3.4 ± 0.6 10^6M^−1min^−1
- Dissociation t1/2 [1]: 53 min

SMILES: CCC(CC)Nc1cc(C)nc2c(-c3ccc(OC)cc3C)c(C)nn12 [DMP904]
- pKi [1]: 9.42
- Rate constant (association k1 or dissociation k−1) [1, 6]: 0.0072 ± 0.002 min⁻¹
- Rate constant (association k1 or dissociation k−1) ([1]; association rate constant): 18 ± 1 10^6M^−1min^−1

SMILES: Cc1nnc2n1-c1ccc(Cl)cc1C(c1ccccc1)=NC2 [alprazolam]
- ACTH AUC (30 min to 4 h) compared to placebo ([4]; single dose alprazolam 0.75 mg): significant reduction

SMILES: CCC(CC)Oc1cc(C)nc(Oc2c(C)cc(C)cc2C)c1C [CP-316,311, 3,6-dimethyl-4-(pentan-3-yloxy)-2-(2,4,6-trimethylphenoxy) pyridine]
- pKi [1]: 7.92
- Rate constant (association k1 or dissociation k−1) [1, 6]: 0.17 ± 0.04 min⁻¹
- Rate constant (association k1 or dissociation k−1) ([1]; association rate constant): 13 ± 2 10^6M^−1min^−1
- Dissociation t1/2 [1]: 4.1 min
